Source: US20260347373A1, “HETEROCYCLIC COMPOUNDS, COMPOSITIONS THEREOF, AND METHODS OF TREATMENT THEREWITH” (BeOne Medicines I GmbH, priority 2023, published 2026)
Where two headings read alike, the source gives them in different places.

What was measured:
[1] = biological target: KRAS G12D (Homo sapiens, UniProt P01116, G12D); test: KRAS G12D Probe Displacement Assay (TR-FRET, GDP-loaded); assay type: binding
Text: (§1) The synthetic routes of probe 1 and 2, which have been disclosed in PCT/CN2022/070676, are hereby incorporated herein.

[2] = biological target: WT KRAS (Homo sapiens, UniProt P01116); test: KRAS WT Probe Displacement Assay (TR-FRET, GDP-loaded); assay type: binding
Chain of WT KRAS (P01116 1-188 isoform P01116-2): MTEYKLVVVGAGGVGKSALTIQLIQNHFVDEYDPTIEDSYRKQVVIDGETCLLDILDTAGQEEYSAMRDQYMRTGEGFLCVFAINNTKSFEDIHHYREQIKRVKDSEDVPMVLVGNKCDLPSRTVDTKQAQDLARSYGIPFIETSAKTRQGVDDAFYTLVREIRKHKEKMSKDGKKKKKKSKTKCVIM
Text: as §1

[3] = KRAS G12D, read-out: KRAS^G12D Probe Displacement Assay IC50
[4] = KRAS WT, read-out: KRAS^WT Probe Displacement Assay IC50
[5] = KRAS^G12D Probe Displacement Assay IC50, KRAS G12D
[6] = KRAS^WT Probe Displacement Assay IC50, KRAS WT

Chain of KRAS G12D (P01116 1-188 isoform P01116-2 G12D): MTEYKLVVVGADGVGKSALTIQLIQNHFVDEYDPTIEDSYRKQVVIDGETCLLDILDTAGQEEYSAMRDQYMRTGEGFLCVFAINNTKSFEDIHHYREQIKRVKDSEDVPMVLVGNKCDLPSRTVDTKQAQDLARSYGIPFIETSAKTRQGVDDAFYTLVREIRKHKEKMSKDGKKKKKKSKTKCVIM

| SMILES | IC50 [1, 3] | IC50 [2, 4] | IC50 [1, 5] | IC50 [2, 6] |
| --- | --- | --- | --- | --- |
| Cc1cc(N)cc(-c2nc3c4c(nc(OCC5(CN6CCCC6)CC5)nc4c2F)N2C[C@H]4CC[C@H](N4)[C@H]2CCO3)c1C(F)(F)F [Example 77, 3-((6aR,7S,10R)-1-fluoro-13-((1-(pyrrolidin-1-ylmethyl)cyclopropyl)methoxy)-5,6,6a,7,8,9,10,11-octahydro-4-oxa-3,11a,12,14,15-pentaaza-7,10-methanocyclohepta[4,5]cycloocta[1,2,3-de]naphthalen-2-yl)-5-methyl-4-(trifluoromethyl)aniline] | < 0.3 nM | 3 to 1000 nM | – | – |
| Cc1cc(N)cc(-c2nc3c4c(nc(OCC5(CN6CCC6)CC5)nc4c2F)N2C[C@H]4CC[C@H](N4)[C@H]2CCO3)c1C(F)(F)F [Example 78, 3-((6aR,7S,10R)-13-((1-(azetidin-1-ylmethyl)cyclopropyl)methoxy)-1-fluoro-5,6,6a,7,8,9,10,11-octahydro-4-oxa-3, 11a,12,14,15-pentaaza-7,10-methanocyclohepta [4,5]cycloocta [1,2,3-de]naphthalen-2-yl)-5-methyl-4-(trifluoromethyl)aniline] | 0.3 to 3 nM | 3 to 1000 nM | – | – |
| Cc1cc(N)cc(-c2nc3c4c(nc(OCC5(CN6CC(C(F)(F)F)C6)CC5)nc4c2F)N2C[C@H]4CC[C@H](N4)[C@H]2CCO3)c1C(F)(F)F [Example 79, 3-((6aR,7S,10R)-1-fluoro-13-((1-((3-(trifluoromethyl)azetidin-1-yl)methyl)cyclopropyl)methoxy)-5,6,6a,7,8,9,10,11-octahydro-4-oxa-3,11a,12,14,15-pentaaza-7,10-methanocyclohepta [4,5]cycloocta [1,2,3-de]naphthalen-2-yl)-5-methyl-4-(trifluoromethyl)aniline] | < 0.3 nM | 3 to 1000 nM | – | – |
| Cc1cc(N)cc(-c2nc3c4c(nc(OCC5(CN6CC(O)(C(F)(F)F)C6)CC5)nc4c2F)N2C[C@H]4CC[C@H](N4)[C@H]2CCO3)c1C(F)(F)F [Example 80, 1-((1-((((6aR,7S,10R)-2-(5-amino-3-methyl-2-(trifluoromethyl)phenyl)-1-fluoro-5,6,6a,7,8,9,10,11-octahydro-4-oxa-3,11a,12,14,15-pentaaza-7,10-methanocyclohepta[4,5]cycloocta [1,2,3-de]naphthalen-13-yl)oxy)methyl)cyclopropyl)methyl)-3-(trifluoromethyl) azetidin-3-ol] | < 0.3 nM | 3 to 1000 nM | – | – |
| Cc1cc(N)cc(-c2nc3c4c(nc(OCC5(CN6CC(C)(O)C6)CC5)nc4c2F)N2C[C@H]4CC[C@H](N4)[C@H]2CCO3)c1C(F)(F)F [Example 81, 1-((1-((((6aR,7S, 10R)-2-(5-amino-3-methyl-2-(trifluoromethyl)phenyl)-1-fluoro-5,6,6a,7,8,9,10,11-octahydro-4-oxa-3,11a,12,14,15-pentaaza-7,10-methanocyclohepta [4,5]cycloocta [1,2,3-de]naphthalen-13-yl)oxy)methyl)cyclopropyl)methyl)-3-methylazetidin-3-ol] | < 0.3 nM | 3 to 1000 nM | – | – |
| Cc1cc(N)cc(-c2nc3c4c(nc(OCC5(CN6CC(F)(F)C6)CC5)nc4c2F)N2C[C@H]4CC[C@H](N4)[C@H]2CCO3)c1C(F)(F)F [Example 82, 3-((6aR,7S,10R)-13-((1-((3,3-difluoroazetidin-1-yl)methyl)cyclopropyl)methoxy)-1-fluoro-5,6,6a,7,8,9,10,11-octahydro-4-oxa-3,11a,12,14,15-pentaaza-7,10-methanocyclohepta [4,5]cycloocta [1,2,3-de]naphthalen-2-yl)-5-methyl-4-(trifluoromethyl)aniline] | 0.3 to 3 nM | 3 to 1000 nM | – | – |
| COC1CN(CC2(COc3nc4c5c(nc(-c6cc(N)cc(C)c6C(F)(F)F)c(F)c5n3)OCC[C@@H]3[C@@H]5CC[C@H](CN43)N5)CC2)C1 [Example 83, 3-((6aR,7S,10R)-1-fluoro-13-((1-((3-methoxyazetidin-1-yl)methyl)cyclopropyl)methoxy)-5,6,6a,7,8,9,10,11-octahydro-4-oxa-3,11a,12,14,15-pentaaza-7,10-methanocyclohepta [4,5]cycloocta [1,2,3-de]naphthalen-2-yl)-5-methyl-4-(trifluoromethyl)aniline] | < 0.3 nM | 3 to 1000 nM | – | – |
| COC1(C)CN(CC2(COc3nc4c5c(nc(-c6cc(N)cc(C)c6C(F)(F)F)c(F)c5n3)OCC[C@@H]3[C@@H]5CC[C@H](CN43)N5)CC2)C1 [Example 84, 3-((6aR,7S,10R)-1-fluoro-13-((1-((3-methoxy-3-methylazetidin-1-yl)methyl)cyclopropyl)methoxy)-5,6,6a,7,8,9,10,11-octahydro-4-oxa-3,11a,12,14,15-pentaaza-7,10-methanocyclohepta [4,5]cycloocta [1,2,3-de]naphthalen-2-yl)-5-methyl-4-(trifluoromethyl)aniline] | < 0.3 nM | 3 to 1000 nM | – | – |
| Cc1cc(N)cc(-c2nc3c4c(nc(OCC5(CN6CC7(CCOCC7)C6)CC5)nc4c2F)N2C[C@H]4CC[C@H](N4)[C@H]2CCO3)c1C(F)(F)F [Example 85, 3-((6aR,7S,10R)-13-((1-((7-oxa-2-azaspiro[3.5]nonan-2-yl)methyl)cyclopropyl)methoxy)-1-fluoro-5,6,6a, 7,8,9,10,11-octahydro-4-oxa-3,11a,12,14,15-pentaaza[7,10]methanocyclohepta [4,5]cycloocta [1,2,3-de]naphthalen-2-yl)-5-methyl-4-(trifluoromethyl)aniline] | < 0.3 nM | 0.3 to 3 nM | – | – |
| Cc1cc(N)cc(-c2nc3c4c(nc(OCC5(CN6CC[C@@H](F)C6)CC5)nc4c2F)N2C[C@H]4CC[C@H](N4)[C@H]2CCO3)c1C(F)(F)F [Example 86, 3-((6aR,7S,10R)-1-fluoro-13-((1-(((R)-3-fluoropyrrolidin-1-yl)methyl)cyclopropyl)methoxy)-5,6,6a,7,8,9,10,11-octahydro-4-oxa-3,11a,12,14,15-pentaaza-7,10-methanocyclohepta [4,5]cycloocta [1,2,3-de]naphthalen-2-yl)-5-methyl-4-(trifluoromethyl) aniline] | – | – | < 0.3 nM | 3 to 1000 nM |
| CO[C@@H]1CCN(CC2(COc3nc4c5c(nc(-c6cc(N)cc(C)c6C(F)(F)F)c(F)c5n3)OCC[C@@H]3[C@@H]5CC[C@H](CN43)N5)CC2)C1 [Example 87, 3-((6aR,7S,10R)-1-fluoro-13-((1-(((R)-3-methoxypyrrolidin-1-yl)methyl)cyclopropyl)methoxy)-5,6,6a,7,8,9,10,11-octahydro-4-oxa-3,11a,12,14,15-pentaaza-7,10-methanocyclohepta [4,5]cycloocta [1,2,3-de]naphthalen-2-yl)-5-methyl-4-(trifluoromethyl)aniline] | < 0.3 nM | 3 to 1000 nM | – | – |
| CO[C@H]1CCN(CC2(COc3nc4c5c(nc(-c6cc(N)cc(C)c6C(F)(F)F)c(F)c5n3)OCC[C@@H]3[C@@H]5CC[C@H](CN43)N5)CC2)C1 [Example 88, 3-((6aR,7S,10R)-1-fluoro-13-((1-(((S)-3-methoxypyrrolidin-1-yl)methyl)cyclopropyl)methoxy)-5,6,6a,7,8,9,10,11-octahydro-4-oxa-3,11a,12,14,15-pentaaza-7,10-methanocyclohepta [4,5]cycloocta [1,2,3-de]naphthalen-2-yl)-5-methyl-4-(trifluoromethyl) aniline] | – | – | < 0.3 nM | 3 to 1000 nM |
